Here are results for 29 compounds from BindingDB's records for doi:10.1021/jm950589q (Ibm Thomas J. Watson Research Center, 1996).

The assay in a line: Inhibitory concentration against HIV-1 replication by interfering with virus reverse transcriptase.

On to `CC(C)=CCN1CC(C)n2c(=S)[nH]c3cccc(c32)C1C` (centres undefined) [6,9-Dimethyl-7-(3-methyl-but-2-enyl)-6,7,8,9-tetrahydro-2H-2,7,9a-triaza-benzo[cd]azulene-1-thione], for which the midpoint of inhibition, the IC50, lay at 25800 nM. That is a double-digit micromolar value.

`CC1Cn2c(=S)[nH]c3cc(Cl)cc(c32)CN1CC1CC1` (centres undefined) [4-Chloro-7-cyclopropylmethyl-8-methyl-6,7,8,9-tetrahydro-2H-2,7,9a-triaza-benzo[cd]azulene-1-thione] registered an IC50 of 34 nM.

`CC1Cn2c(=S)[nH]c3cccc(c32)CN1CC1CC1` (centres undefined): the half-inhibitory concentration (IC50) came out at 60 nM. Compared with the last compound, the IC50 is about 1.8-fold higher.

`CC(C)=CCN1Cc2cccc3[nH]c(=S)n(c23)C(C)C1C` (centres undefined) [8,9-Dimethyl-7-(3-methyl-but-2-enyl)-6,7,8,9-tetrahydro-2H-2,7,9a-triaza-benzo[cd]azulene-1-thione] displayed an IC50 of 2220 nM.

Take `CC(C)=CCN1Cc2cccc3[nH]c(=O)n(c23)C(C)C1C` (centres undefined) [8,9-Dimethyl-7-(3-methyl-but-2-enyl)-6,7,8,9-tetrahydro-2H-2,7,9a-triaza-benzo[cd]azulen-1-one]: the IC50 is 56700 nM.

Turning to `CC(C)=CCN1Cc2cc(Cl)cc3[nH]c(=S)n(c23)C[C@@H]1C`, the IC50 was 43 nM.

Turning to `CC(C)=CCN1CCn2c(=O)[nH]c3ccc(Cl)c(c32)C1C` (centres undefined) [5-Chloro-6-methyl-7-(3-methyl-but-2-enyl)-6,7,8,9-tetrahydro-2H-2,7,9a-triaza-benzo[cd]azulen-1-one], the IC50 stood at 145 nM. This IC50 is about 3.4-fold higher than that of the compound before.

For the compound `CC(C)=CCN1Cc2c(Cl)ccc3[nH]c(=S)n(c23)C[C@@H]1C` [5-Chloro-8-methyl-7-(3-methyl-but-2-enyl)-6,7,8,9-tetrahydro-2H-2,7,9a-triaza-benzo[cd]azulene-1-thione], the 50% inhibitory concentration (IC50) is 5 nM.

In turn, `CC(C)=CCN1[C@H](C)Cn2c(=S)[nH]c3cccc(c32)[C@H]1C` [(6R,8R)-6,8-Dimethyl-7-(3-methyl-but-2-enyl)-6,7,8,9-tetrahydro-2H-2,7,9a-triaza-benzo[cd]azulene-1-thione] yielded an IC50 of 42 nM.

For the compound `C=C(C)CN1Cc2cc(Cl)cc3[nH]c(=S)n(c23)C(C)C1` (centres undefined) [4-Chloro-9-methyl-7-(2-methyl-allyl)-6,7,8,9-tetrahydro-2H-2,7,9a-triaza-benzo[cd]azulene-1-thione], inhibition was half-maximal at 670 nM (IC50).

`CC(C)=CCN1CCn2c(=O)[nH]c3cccc(c32)C1C` (centres undefined) [6-Methyl-7-(3-methyl-but-2-enyl)-6,7,8,9-tetrahydro-2H-2,7,9a-triaza-benzo[cd]azulen-1-one] yielded an IC50 of 12100 nM. This IC50 lies about 18-fold higher than the previous one.

`CC(C)=CCN1Cc2cccc3[nH]c(=S)n(c23)C[C@@H]1C` [(11S)-11-methyl-10-(3-methylbut-2-en-1-yl)-1,3,10-triazatricyclo[6.4.1.0^{4,13}]trideca-4(13),5,7-triene-2-thione] registered an IC50 of 97 nM.

The compound `CC(C)=CCN1CCn2c(=S)[nH]c3ccc(Cl)c(c32)C1` [5-Chloro-7-(3-methyl-but-2-enyl)-6,7,8,9-tetrahydro-2H-2,7,9a-triaza-benzo[cd]azulene-1-thione] gave an IC50 of 46 nM.

Compound `C=C(C)CN1Cc2cccc3[nH]c(=O)n(c23)CC1C` (centres undefined) displayed an IC50 of 34700 nM.

Compound `CC(C)=CCN1Cc2cc(Cl)cc3[nH]c(=O)n(c23)CC1C` (centres undefined) registered an IC50 of 180 nM. Against the preceding compound, the IC50 is about 190-fold lower.

Compound `CC(C)=CCN1CCn2c(=O)[nH]c3cc(Cl)cc(c32)C1C` (centres undefined) [4-Chloro-6-methyl-7-(3-methyl-but-2-enyl)-6,7,8,9-tetrahydro-2H-2,7,9a-triaza-benzo[cd]azulen-1-one] gave a concentration for half-maximal inhibition (IC50) of 160 nM.

As for `CC(C)=CCN1[C@H](C)Cn2c(=S)[nH]c3cc(Cl)cc(c32)[C@@H]1C` [(6S,8R)-4-Chloro-6,8-dimethyl-7-(3-methyl-but-2-enyl)-6,7,8,9-tetrahydro-2H-2,7,9a-triaza-benzo[cd]azulene-1-thione], the IC50 was 480 nM.

As for `CC1C(C)n2c(=S)[nH]c3cccc(c32)CN1CC1CC1` (centres undefined) [7-Cyclopropylmethyl-8,9-dimethyl-6,7,8,9-tetrahydro-2H-2,7,9a-triaza-benzo[cd]azulene-1-thione], the IC50 worked out at 13400 nM.

The compound `CC(C)=CCN1[C@H](C)Cn2c(=O)[nH]c3cc(Cl)cc(c32)[C@@H]1C` [(6S,8R)-4-Chloro-6,8-dimethyl-7-(3-methyl-but-2-enyl)-6,7,8,9-tetrahydro-2H-2,7,9a-triaza-benzo[cd]azulen-1-one] returned an IC50 of 230 nM.

`C=C(C)CN1Cc2cccc3[nH]c(=O)n(c23)C(CCC)C1` (centres undefined) [7-(2-Methyl-allyl)-9-propyl-6,7,8,9-tetrahydro-2H-2,7,9a-triaza-benzo[cd]azulen-1-one] had an IC50 of 48100 nM.

Turning to `CC(C)=CCN1CCn2c(=S)[nH]c3ccc(Cl)c(c32)C1C` (centres undefined) [5-Chloro-6-methyl-7-(3-methyl-but-2-enyl)-6,7,8,9-tetrahydro-2H-2,7,9a-triaza-benzo[cd]azulene-1-thione], 12 nM corresponded to half-maximal inhibition (IC50).

Compound `C=C(C)CN1Cc2cccc3[nH]c(=S)n(c23)CC1C` (centres undefined) gave a half-inhibitory concentration (IC50) of 26 nM. This IC50 is about 2.2-fold higher than that of the compound before.

`C=C(C)CN1Cc2cccc3[nH]c(=O)n(c23)C(C(C)C)C1` (centres undefined) [9-Isopropyl-7-(2-methyl-allyl)-6,7,8,9-tetrahydro-2H-2,7,9a-triaza-benzo[cd]azulen-1-one] had an IC50 of 12600 nM. This IC50 lies about 480-fold higher than the previous one.

`CC(C)=CCN1Cc2cccc3[nH]c(=O)n(c23)CC1C` (centres undefined) yielded an IC50 of 3320 nM. This IC50 is about 3.8-fold lower than that of the compound before.

In turn, `C=C(C)CN1Cc2cccc3[nH]c(=O)n(c23)C(C)C1` (centres undefined) [9-Methyl-7-(2-methyl-allyl)-6,7,8,9-tetrahydro-2H-2,7,9a-triaza-benzo[cd]azulen-1-one] showed an IC50 of 32100 nM. This IC50 is about 9.7-fold higher than that of the compound before.

`CC(C)=CCN1CCn2c(=S)[nH]c3cccc(c32)C1C` (centres undefined) [6-Methyl-7-(3-methyl-but-2-enyl)-6,7,8,9-tetrahydro-2H-2,7,9a-triaza-benzo[cd]azulene-1-thione] showed a half-inhibitory concentration (IC50) of 78 nM.

Take `CC(C)=CCN1CCn2c(=S)[nH]c3cc(Cl)cc(c32)C1` [4-Chloro-7-(3-methyl-but-2-enyl)-6,7,8,9-tetrahydro-2H-2,7,9a-triaza-benzo[cd]azulene-1-thione]: the IC50 came out at 160 nM.

For `CC(C)=CCN1CCn2c(=S)[nH]c3cc(Cl)cc(c32)C1C` (centres undefined) [4-Chloro-6-methyl-7-(3-methyl-but-2-enyl)-6,7,8,9-tetrahydro-2H-2,7,9a-triaza-benzo[cd]azulene-1-thione], 23 nM corresponded to half-maximal inhibition (IC50). Compared with the last compound, the IC50 is about 7-fold lower.

In the case of `CC(C)=CCN1[C@H](C)Cn2c(=S)[nH]c3cccc(c32)[C@@H]1C` [(6S,8R)-6,8-Dimethyl-7-(3-methyl-but-2-enyl)-6,7,8,9-tetrahydro-2H-2,7,9a-triaza-benzo[cd]azulene-1-thione], the IC50 is 1150 nM. Compared with the last compound, the IC50 is about 50-fold higher.
